Our source for the Ki and Ratio Ki values is ChEMBL document CHEMBL1149521, “Synthesis of novel keto-ACE analogues as domain-selective angiotensin I-converting enzyme inhibitors” (Bioorg Med Chem Lett, 2006).

The target in assay [1] is T1, Angiotensin-converting enzyme (Oryctolagus cuniculus, UniProt P12822).
T1 sequence (P12822 whole entry): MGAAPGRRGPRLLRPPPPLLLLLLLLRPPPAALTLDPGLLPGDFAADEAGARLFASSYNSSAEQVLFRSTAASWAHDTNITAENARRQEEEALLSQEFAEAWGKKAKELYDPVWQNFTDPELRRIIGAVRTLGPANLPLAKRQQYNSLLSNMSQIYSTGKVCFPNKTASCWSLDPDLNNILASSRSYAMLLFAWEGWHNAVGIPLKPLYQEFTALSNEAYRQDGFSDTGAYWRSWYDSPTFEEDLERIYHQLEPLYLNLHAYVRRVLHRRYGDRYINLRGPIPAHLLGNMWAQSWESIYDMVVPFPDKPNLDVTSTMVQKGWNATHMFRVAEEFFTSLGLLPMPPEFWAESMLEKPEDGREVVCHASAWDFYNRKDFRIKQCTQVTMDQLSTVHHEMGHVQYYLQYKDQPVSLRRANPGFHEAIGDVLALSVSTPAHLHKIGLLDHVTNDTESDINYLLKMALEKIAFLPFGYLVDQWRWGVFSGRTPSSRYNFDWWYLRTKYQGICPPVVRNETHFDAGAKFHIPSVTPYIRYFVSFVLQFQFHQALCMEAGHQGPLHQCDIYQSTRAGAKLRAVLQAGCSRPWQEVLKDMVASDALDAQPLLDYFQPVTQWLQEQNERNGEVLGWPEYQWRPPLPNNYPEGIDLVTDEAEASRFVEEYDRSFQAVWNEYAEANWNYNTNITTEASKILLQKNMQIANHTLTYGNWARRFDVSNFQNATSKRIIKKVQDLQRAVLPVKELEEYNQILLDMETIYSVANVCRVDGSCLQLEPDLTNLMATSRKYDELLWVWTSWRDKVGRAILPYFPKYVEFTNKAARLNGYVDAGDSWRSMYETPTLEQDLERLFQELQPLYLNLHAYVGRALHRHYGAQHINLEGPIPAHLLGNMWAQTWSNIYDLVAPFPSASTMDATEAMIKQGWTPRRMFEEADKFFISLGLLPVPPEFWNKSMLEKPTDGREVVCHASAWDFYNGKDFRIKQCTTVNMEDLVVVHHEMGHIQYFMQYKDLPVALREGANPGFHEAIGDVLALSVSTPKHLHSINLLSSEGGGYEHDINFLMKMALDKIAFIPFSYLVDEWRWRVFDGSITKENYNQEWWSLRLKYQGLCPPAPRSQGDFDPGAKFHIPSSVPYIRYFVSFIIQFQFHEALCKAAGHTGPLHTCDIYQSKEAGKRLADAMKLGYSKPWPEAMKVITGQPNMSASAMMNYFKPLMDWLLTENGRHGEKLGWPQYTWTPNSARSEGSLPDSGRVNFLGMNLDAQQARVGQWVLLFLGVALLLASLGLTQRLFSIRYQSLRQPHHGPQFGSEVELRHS
Put plainly: Inhibition of rabbit testis recombinant ACE C domain.

Assay [2] can be described thus: Selectivity for rabbit testis ACE C domain over human ACE N domain.
For assay [3], the target named is Angiotensin-converting enzyme (Homo sapiens, UniProt P12821). Nature of the assay: Inhibition of recombinant ACE N domain.
Angiotensin-converting enzyme (Homo sapiens, UniProt P12821), sequence (P12821 whole entry): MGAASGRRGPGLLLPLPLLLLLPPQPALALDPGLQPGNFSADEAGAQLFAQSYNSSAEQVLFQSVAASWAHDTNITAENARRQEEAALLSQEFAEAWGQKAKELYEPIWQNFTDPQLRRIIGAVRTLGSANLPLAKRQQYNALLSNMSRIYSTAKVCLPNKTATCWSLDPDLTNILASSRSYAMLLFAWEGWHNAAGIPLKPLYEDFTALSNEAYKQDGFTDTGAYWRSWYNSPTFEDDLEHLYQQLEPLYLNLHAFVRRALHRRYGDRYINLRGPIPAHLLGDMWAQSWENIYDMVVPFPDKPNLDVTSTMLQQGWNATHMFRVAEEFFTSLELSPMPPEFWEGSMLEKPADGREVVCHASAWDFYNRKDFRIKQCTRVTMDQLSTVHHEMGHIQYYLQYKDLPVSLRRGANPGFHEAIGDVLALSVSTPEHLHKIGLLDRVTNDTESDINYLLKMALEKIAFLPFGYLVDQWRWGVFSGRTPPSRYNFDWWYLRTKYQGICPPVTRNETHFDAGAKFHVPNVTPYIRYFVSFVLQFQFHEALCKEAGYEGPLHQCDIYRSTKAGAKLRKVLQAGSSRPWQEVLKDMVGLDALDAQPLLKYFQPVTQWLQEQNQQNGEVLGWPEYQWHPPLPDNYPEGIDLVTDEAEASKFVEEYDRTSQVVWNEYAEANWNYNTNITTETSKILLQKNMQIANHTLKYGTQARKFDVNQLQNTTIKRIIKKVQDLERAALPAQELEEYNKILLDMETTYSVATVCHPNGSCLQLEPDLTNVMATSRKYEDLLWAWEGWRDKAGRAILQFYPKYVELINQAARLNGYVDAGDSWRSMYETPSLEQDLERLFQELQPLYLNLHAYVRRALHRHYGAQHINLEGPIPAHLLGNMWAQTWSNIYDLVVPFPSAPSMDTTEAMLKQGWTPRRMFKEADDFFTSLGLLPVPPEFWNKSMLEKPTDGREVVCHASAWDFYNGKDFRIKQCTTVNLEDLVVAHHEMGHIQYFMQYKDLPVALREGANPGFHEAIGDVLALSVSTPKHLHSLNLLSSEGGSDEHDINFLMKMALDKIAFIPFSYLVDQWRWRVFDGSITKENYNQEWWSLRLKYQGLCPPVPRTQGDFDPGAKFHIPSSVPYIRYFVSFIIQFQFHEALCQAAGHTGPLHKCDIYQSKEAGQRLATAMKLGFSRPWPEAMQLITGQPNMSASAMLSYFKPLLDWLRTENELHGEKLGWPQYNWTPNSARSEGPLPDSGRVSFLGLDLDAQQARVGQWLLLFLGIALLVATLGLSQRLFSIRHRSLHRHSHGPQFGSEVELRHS

The Ki is the dissociation constant of the complex between target and ligand, obtained from inhibition or displacement. As for `CC(C)(C)OC(=O)N[C@@H](Cc1ccccc1)C(=O)CCC(=O)N1CCC[C@H]1C(=O)O`, the Ki in assay [1] was found to be 144 µM. The Ratio Ki in assay [2] was 0.2.
On the same counts, the results for `O=C(CCC(=O)[C@H](Cc1ccccc1)NC(=O)c1ccccc1)N[C@@H](Cc1c[nH]c2ccccc12)C(=O)O` are 0.8 µM and 245.
On to `CC(C)(C)OC(=O)N[C@@H](Cc1ccccc1)C(=O)CCC(=O)N[C@@H](Cc1ccccc1)C(=O)O`, for which the Ki was determined as 313 µM in assay [1] and 43 µM in assay [3]. In addition, in assay [2], the Ratio Ki amounted to 0.1.
On the same counts, the results for `CC(C)(C)OC(=O)N[C@@H](Cc1ccccc1)C(=O)CCC(=O)N[C@@H](Cc1c[nH]c2ccccc12)C(=O)O` are 381 µM, 13.3 µM and 0.04.
Turning to `O=C(CCC(=O)[C@H](Cc1ccccc1)NC(=O)c1ccccc1)N[C@@H](Cc1ccccc1)C(=O)O`, the Ki in assay [1] is 23.7 µM. Also, the Ratio Ki in assay [2] worked out at 3.6.
Turning to `NCCCC[C@H](N[C@@H](CCc1ccccc1)C(=O)O)C(=O)N1CCC[C@H]1C(=O)O` [LISINOPRIL ANHYDROUS], in assay [1], the Ki amounted to 0.051 µM.
